One assay concerns Cocul-CTX cells. The assay is described as follows: BrdU proliferation ELISA assay. The format is cell-based, rat. The conditions noted are these: 150 μg/ml, 24 h, FIG. 6. On the procedure:
(§1) Wistar rats (150-200 gm) were used to isolate bone marrow (BM). Rats were sacrificed and their femurs were removed aseptically. The bone marrow (BM) was flushed from the shaft of the bone by clipping of the epiphysial ends and flushing using a 26-gauge needle with ˜2 ml of Dulbecco's Modified Eagle's medium (DMEM) supplemented with 5% FBS, 1% penicillin/streptomycin solution, 1% sodium pyruvate and L-glutamine. The BM was then centrifuged for 8 minutes at 1000 rpm. Following centrifugation, cell pellet was collected and 1 ml of fresh DMEM was added. The cell viability was checked using trypan blue exclusion method. The cells were then divided into three equal parts. One part was co-cultured with freshly isolated hippocampal cells in T75 cm^2 flask, 2nd with freshly isolated cortical cells and the third portion (BM cells only) was cultured as a control. The cell density for co-cultures was set at 140,000 cells/ml for each type of culture. The cultured flasks were then incubated at 37° C. and 5% CO2. After 4-5 days, floating hematopoietic cells and dead debris/tissues of hippocampus and cortex were removed and bone marrow stromal cells (BMSCs) were recovered due to their tendency to adhere. Medium was replaced after every 3 to 4 days till cells became 80-90% confluent. […]
Background: An ELISA detects its analyte on a solid surface through an enzyme-linked reagent.

Another assay has as its system Cocul-HP cells. The assay is described as follows: BrdU proliferation ELISA assay. In kind it is cell-based, rat. The conditions noted are these: 24 h, increase reported with 100 and 150 μg/mL, FIG. 6. On the procedure:
as §1

As for `CC(=O)C=C1C=C(C)CC(C)(C)C1` (mixture of isomers) [isoxylitones], the BrdU positive cells entry with Cocul-CTX cells is given as “increased BrdU positive cells”; in the assay with Cocul-HP cells, “significantly elevated the BrdU positive cells”.
